Patent US4916146A, “Amino acid imide derivatives, usage thereof, and medicinal composition containing the same” (Zeria Pharmaceutical Co., Ltd., priority 1987, dated 1990)
Like-named read-outs stand apart in the source and are kept apart here.

Columns and labels:
ICR male mice [1] = assay: Anti-amnesic activity (cycloheximide-induced amnesia, step-down passive avoidance); type: in vivo; details: for Amnesic Mice (%): latency shorter than 150 seconds at 24 hours
Experimental: Compounds of this invention were checked with respect to their abilities to prevent the inhibition of long-term memory fixation by cycloheximide which is an amnesia inducing compound. ICR male mice, age 6 to 7 weeks, were used for the test. The test was carried out using a step-down passive avoidance apparatus.
On the first day, a 5-minute training was given to each mouse which was placed on a rubber platform. Every time when the mouse stepped down on the grid floor, a 0.2 mA electric foot shock was applied until it stepped up on the platform. This motion of the mouse was repeated for 5 minutes.
Administration of cycloheximide and the compound of this invention was performed immediately after the training. Cycloheximide was dissolved in a saline and subcutaneously administered to the mouse. The compound of this invention, suspended in a sesame oil/Tween 80/5% gum arabic (3/1/96; by volume), was intraperitoneally administered. Aniracetam suspended in 5% gum arabic was orally administered. Twenty-four hours after the training, a retention test was performed, which consisted of placing the mouse on the platform again and measuring the latency of the mouse to step down on the grid floor. The amnesia ratio for each group of mice was determined as the percentage of amnesic mice taken latency shorter than 150 seconds.
- wherein %A is a percentage of amnesic mice, t denotes a test compound,
stands for cycloheximide, v stands for vehicle, and s stands for saline

ICR male mice [2] = assay: Anti-hypoxic activity (survival time under 4% O2 + 96% N2); type: in vivo; details: 30 minutes before mixed gas, control = 100
Experimental: Groups of ICR male mice, age 4 to 5 weeks, each group consisting of 10 mice and each mouse having been fasted for 24 hours, were used for the test. Mice were placed in a transparent desiccator (diameter: 19 cm, height: 30 cm) made of synthetic resin and having 2 bulbs, one at the upper portion and the other at the lower portion, for replacing the gas therein. A mixed gas (4% O2 +96% N2) was fed from the upper bulb at a rate of 10 l/min to measure the period of time until respiratory arrest took place for each mouse. The time measured was taken as the time of survival.
Each tested compound suspended in 5% gum arabic solution was intraperitoneally administered 30 minutes before the start of the mixed gas feeding. A group of mice to which only 5% gum arabic solution was intraperitoneally administered was used as a control.
Compounds, not sufficiently suspended in 5% gum arabic, were dissolved with Tween 80 so that the final concentration of the detergent was 3%, followed by the addition of 5% gum arabic. The anti-hypoxic activity was determined according to the following formula: [formula]

[3] = molecular target: prolyl endopeptidase from Flavobacterium (Elizabethkingia meningoseptica, UniProt P27028); assay: biochemical
Experimental: Inhibitory activity of the compound of formula (I) against prolyl endopeptidase from Flavobacterium was measured according to the method of Yoshimoto and Tsuru [Arg.
Prolyl endopeptidase was dissolved with 20 mM Tris-HCl buffer (pH 7.4) at a concentration of 0.4 unit/ml. This solution (100 μl) was added to 890 μl of the same buffer, and the solution thus obtained was left at room temperature for 10 minutes. (This solution is herein referred to as an "Enzyme solution"). This buffer (990 μl) was used as a "Correction solution".
Test compound dissolved with dimethylsulfoxide (10 μl) was added to the Enzyme solution. The solution was stirred and allowed to stand at room temperature for 10 minutes. Separately, 10 μl of dimethylsulfoxide was added to Enzyme solution and was processed in the same manner. The solution thus obtained was served as a "Control solution". The same procedure was carried out on the Correction solution.
Enzyme activities were determined by subtracting the blank value, i.e., the absorbance measured on the Correction solution, from the absorbance of each of the sample solutions or of the Control solution.

[4] = molecular target: T1, prolyl endopeptidase prepared from canine brains (Canis lupus familiaris, UniProt A0A8I3N6C8); assay: Inhibitory activity against prolyl endopeptidase from brain; type: biochemical; details: substrate carbobenzoxyglycylprolyl paranitroanilide, 37° C., 10 minutes, read-out: Inhibition Potency, IC50
T1 construct: Prolyl endopeptidase was prepared from canine brains; from tissue; host or cells: canine brain
Experimental: Buffer A: 20 mM Tris-HCl buffer (pH 7.0)
Buffer B: a solution containing 0.1% gelatin, 1 mM EDTA, and 1 mM mercapto ethanol in buffer solution A
Prolyl endopeptidase was dissolved with the Buffer B at a concentration of 0.4 unit/ml. This solution (50 μl) was added to 940 μl of the Buffer A, and the solution thus obtained was left at 37° C. for 10 minutes (This solution is herein referred to as "Enzyme solution"). A mixed solution of 50 μl of the Buffer B and 940 μl of Buffer A was used as a "Correction solution".
A test compound was dissolved with dimathylsulfoxide (10 μl) was added to the Enzyme solution. The mixture was stirred and allowed to stand at 37° C. for 10 minutes. Separately, 10 μl of dimethylsulfoxide was added to the Enzyme solution and was processed in the same manner. The solution thus obtained was served as a "Control solution". The same procedure was carried out on the Correction solution.
One hundred micoliters of 2.5 mM carbobezoxyglycylprolyl paranitroanilide, which was dissolved with 40% dioxane, was added to each of the above 3 solutions, i.e., the Enzyme solution with the test compound, Control solution, and Correction solution, and the reaction was carried out at 37° C. for 10 minutes.
Enzyme activities were determined by subtracting the blank value, i.e., the absorbance measured on the Correction solution, from the absorbance of each of the sample solutions and of the Control solution.

Fisher 344 male rats = assay: Toxicity experiment, oral administration; type: in vivo; details: period of 14 days; for Mortality: 500, 1,000, 1,500 and 2,000 mg/kg orally in propylene glycol
Description: Groups of Fisher 344 male rats, age 6 weeks, each group consisting of 5 rats were used for the test.

ICR male mice [5] = assay: Toxicity experiment, intraperitoneal administration; type: in vivo; details: 300 mg/kg intraperitoneally in 5% gum arabic, period of 7 days
Experimental: Groups of ICR male mice, age 4 to 5 weeks, each group consisting of 10 mice were used for the test. A dose of 300 mg/kg of each compound prepared in Examples 1 and 2 hereinbelow suspended in 5% gum arabic was intraperitoneally administered to each group of mice.

[6] = 30 mg/kg po + cycloheximide 200 mg/kg sc
[7] = 60 mg/kg po + cycloheximide 200 mg/kg sc
[8] = 1 mg/kg ip + cycloheximide 200 mg/kg sc
[9] = 3 mg/kg ip + cycloheximide 200 mg/kg sc
[10] = read-out: Inhibition Potency, IC50

T1 sequence (A0A8I3N6C8 1-710): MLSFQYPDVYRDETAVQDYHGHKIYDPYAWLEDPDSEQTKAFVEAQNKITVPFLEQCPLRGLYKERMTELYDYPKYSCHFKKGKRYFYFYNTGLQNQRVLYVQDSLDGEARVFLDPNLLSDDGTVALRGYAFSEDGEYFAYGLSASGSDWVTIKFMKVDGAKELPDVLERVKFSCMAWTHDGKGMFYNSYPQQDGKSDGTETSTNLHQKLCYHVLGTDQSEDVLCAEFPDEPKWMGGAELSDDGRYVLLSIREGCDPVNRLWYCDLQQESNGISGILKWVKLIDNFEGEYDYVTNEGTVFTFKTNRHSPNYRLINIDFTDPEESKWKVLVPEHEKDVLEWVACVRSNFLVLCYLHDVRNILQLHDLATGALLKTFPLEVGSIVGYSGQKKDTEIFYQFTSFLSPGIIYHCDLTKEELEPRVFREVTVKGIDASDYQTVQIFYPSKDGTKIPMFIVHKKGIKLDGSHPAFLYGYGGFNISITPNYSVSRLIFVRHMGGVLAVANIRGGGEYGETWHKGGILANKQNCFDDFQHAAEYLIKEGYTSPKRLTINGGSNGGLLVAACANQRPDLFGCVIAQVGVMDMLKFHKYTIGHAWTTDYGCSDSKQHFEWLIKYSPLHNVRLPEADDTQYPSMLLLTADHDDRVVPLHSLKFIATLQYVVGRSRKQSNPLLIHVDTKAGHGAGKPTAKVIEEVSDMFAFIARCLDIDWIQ
Sequence of prolyl endopeptidase from Flavobacterium (P27028 21-705): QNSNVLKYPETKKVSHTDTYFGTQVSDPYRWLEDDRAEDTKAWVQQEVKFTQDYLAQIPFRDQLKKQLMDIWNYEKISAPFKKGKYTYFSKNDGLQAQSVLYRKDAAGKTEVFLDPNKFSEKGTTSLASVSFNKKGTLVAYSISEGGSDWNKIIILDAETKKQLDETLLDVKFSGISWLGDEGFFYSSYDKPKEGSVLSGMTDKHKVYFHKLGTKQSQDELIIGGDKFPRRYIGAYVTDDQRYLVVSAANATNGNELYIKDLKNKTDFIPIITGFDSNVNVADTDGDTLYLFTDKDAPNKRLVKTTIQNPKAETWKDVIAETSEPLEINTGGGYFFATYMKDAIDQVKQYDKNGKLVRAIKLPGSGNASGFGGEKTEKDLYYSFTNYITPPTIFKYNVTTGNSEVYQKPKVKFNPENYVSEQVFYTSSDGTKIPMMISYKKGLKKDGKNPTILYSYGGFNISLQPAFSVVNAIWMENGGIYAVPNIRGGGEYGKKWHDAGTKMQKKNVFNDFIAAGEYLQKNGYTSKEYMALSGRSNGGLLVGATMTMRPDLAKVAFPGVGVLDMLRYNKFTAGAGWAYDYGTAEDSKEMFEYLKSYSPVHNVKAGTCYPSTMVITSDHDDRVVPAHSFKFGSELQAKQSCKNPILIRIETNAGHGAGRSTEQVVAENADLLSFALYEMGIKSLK

## COc1ccc(C(=O)N2CCCC2=O)cc1 [Aniracetam, reference compound]
ICR male mice [1]; [6]
  Amnesia Reversal (%): 22.8%
  Amnesic Mice (%): 42.9%
ICR male mice [1]; [7]
  Amnesia Reversal (%): 7.2%
  Amnesic Mice (%): 50.0%
ICR male mice [2]; dose 100 mg/kg ip
  Anti-hypoxic Activity (%): 115%
ICR male mice [2]; dose 300 mg/kg ip
  Anti-hypoxic Activity (%): 159%
[3]
  IC50: > 1000 µM

## CC(C)(CO)[C@@H](O)C(=O)NCCCC(=O)O [Calcium hopantenate, reference compound]
ICR male mice [2]; dose 250 mg/kg ip
  Anti-hypoxic Activity (%): 135%
[3]; prolyl endopeptidase from Flavobacterium, substrate carbobenzoxyglycylprolyl paranitroanilide, 37° C., 10 minutes, read-out: Inhibition Potency, IC50
  IC50: > 1000 µM

## O=C([C@@H]1CSCN1C(=O)CCCc1ccccc1)N1CCSC1 [Compound of Ex. 1, N-(4-phenylbutanoyl)-L-thioprolylthiazolidineimide]
[4]
  IC50: 0.017 µM
Fisher 344 male rats
  Mortality: No fatal problem
ICR male mice [1]; [8]
  Amnesia Reversal (%): 28.2%
  Amnesic Mice (%): 52.9%
ICR male mice [1]; [9]
  Amnesia Reversal (%): 74.8%
  Amnesic Mice (%): 26.7%
ICR male mice [2]; dose 100 mg/kg ip
  Anti-hypoxic Activity (%): 124%
ICR male mice [5]
  Mortality: No fatal problem
[3]; [10]
  IC50: 0.087 µM

## O=C([C@@H]1CCCN1C(=O)CCCc1ccccc1)N1CCSC1 [Compound of Ex. 2, N-(4-phenylbutanoyl)-L-prolylthiazolidineimide]
[4]
  IC50: 0.041 µM
Fisher 344 male rats
  Mortality: No fatal problem
ICR male mice [2]; dose 100 mg/kg ip
  Anti-hypoxic Activity (%): 160%
ICR male mice [5]
  Mortality: No fatal problem
[3]; [10]
  IC50: 0.15 µM

## O=C([C@@H]1CSCN1C(=O)CCCc1ccccc1)N1CCCC1 [Compound of Ex. 3, N-(4-phenylbutanoyl)-L-thioprolylpyrrolidineimide]
[4]
  IC50: 0.031 µM
Fisher 344 male rats
  Mortality: No fatal problem
ICR male mice [2]; dose 100 mg/kg ip
  Anti-hypoxic Activity (%): 169%

## O=C([C@H]1CCCN1C(=O)CCCc1ccccc1)N1CCSC1 [Compound of Ex. 4, N-(4-phenylbutanoyl)-D-prolylthiazolidineimide]
ICR male mice [2]; dose 100 mg/kg ip
  Anti-hypoxic Activity (%): 164%

## COC1=C(OC)C(=O)C(CCCCCCCCCCO)=C(C)C1=O [Idebenone, reference compound]
ICR male mice [2]; dose 100 mg/kg ip
  Anti-hypoxic Activity (%): 140%

## O=C([C@@H]1CCCN1C(=O)CCCc1ccccc1)N1CCCC1 [SUAM 1221, reference compound]
Fisher 344 male rats; 1,500 mg/kg orally
  Rats died out of the 5 rats: one
Fisher 344 male rats; 2,000 mg/kg orally
  Rats died out of the 5 rats: 2
